Test [1] has as its target Human recombinant Acetyl-CoA Carboxylase 2 (ACC2) (Homo sapiens, UniProt O00763). The test can be described thus: Assay X: ACC2 inhibition, inorganic phosphate (malachite green). In kind it is biochemical. The following applies: Assay X: 37° C., 1.5 h, 5 min pre-incubation. The procedure, abridged:
(§1)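 Human recombinant enzyme pre-incubated 5 min with compound before substrate addition; reaction run 1.5 h, then inorganic phosphate detected by malachite green absorbance at 660 nm. Ten concentrations tested in triplicate; apparent IC50 from four-parameter curve fit.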

Test [2] addresses Human recombinant Acetyl-CoA Carboxylase 1 (ACC1) (Homo sapiens, UniProt Q13085). The test can be described thus: Assay X: ACC1 inhibition, inorganic phosphate (malachite green). The following applies: Assay X: 37° C., 1.5 h, 5 min pre-incubation. In kind it is biochemical. The procedure, abridged:
as §1

SMILES strings stand for the structures.

Sequence of Human recombinant Acetyl-CoA Carboxylase 2 (ACC2) (O00763 whole entry): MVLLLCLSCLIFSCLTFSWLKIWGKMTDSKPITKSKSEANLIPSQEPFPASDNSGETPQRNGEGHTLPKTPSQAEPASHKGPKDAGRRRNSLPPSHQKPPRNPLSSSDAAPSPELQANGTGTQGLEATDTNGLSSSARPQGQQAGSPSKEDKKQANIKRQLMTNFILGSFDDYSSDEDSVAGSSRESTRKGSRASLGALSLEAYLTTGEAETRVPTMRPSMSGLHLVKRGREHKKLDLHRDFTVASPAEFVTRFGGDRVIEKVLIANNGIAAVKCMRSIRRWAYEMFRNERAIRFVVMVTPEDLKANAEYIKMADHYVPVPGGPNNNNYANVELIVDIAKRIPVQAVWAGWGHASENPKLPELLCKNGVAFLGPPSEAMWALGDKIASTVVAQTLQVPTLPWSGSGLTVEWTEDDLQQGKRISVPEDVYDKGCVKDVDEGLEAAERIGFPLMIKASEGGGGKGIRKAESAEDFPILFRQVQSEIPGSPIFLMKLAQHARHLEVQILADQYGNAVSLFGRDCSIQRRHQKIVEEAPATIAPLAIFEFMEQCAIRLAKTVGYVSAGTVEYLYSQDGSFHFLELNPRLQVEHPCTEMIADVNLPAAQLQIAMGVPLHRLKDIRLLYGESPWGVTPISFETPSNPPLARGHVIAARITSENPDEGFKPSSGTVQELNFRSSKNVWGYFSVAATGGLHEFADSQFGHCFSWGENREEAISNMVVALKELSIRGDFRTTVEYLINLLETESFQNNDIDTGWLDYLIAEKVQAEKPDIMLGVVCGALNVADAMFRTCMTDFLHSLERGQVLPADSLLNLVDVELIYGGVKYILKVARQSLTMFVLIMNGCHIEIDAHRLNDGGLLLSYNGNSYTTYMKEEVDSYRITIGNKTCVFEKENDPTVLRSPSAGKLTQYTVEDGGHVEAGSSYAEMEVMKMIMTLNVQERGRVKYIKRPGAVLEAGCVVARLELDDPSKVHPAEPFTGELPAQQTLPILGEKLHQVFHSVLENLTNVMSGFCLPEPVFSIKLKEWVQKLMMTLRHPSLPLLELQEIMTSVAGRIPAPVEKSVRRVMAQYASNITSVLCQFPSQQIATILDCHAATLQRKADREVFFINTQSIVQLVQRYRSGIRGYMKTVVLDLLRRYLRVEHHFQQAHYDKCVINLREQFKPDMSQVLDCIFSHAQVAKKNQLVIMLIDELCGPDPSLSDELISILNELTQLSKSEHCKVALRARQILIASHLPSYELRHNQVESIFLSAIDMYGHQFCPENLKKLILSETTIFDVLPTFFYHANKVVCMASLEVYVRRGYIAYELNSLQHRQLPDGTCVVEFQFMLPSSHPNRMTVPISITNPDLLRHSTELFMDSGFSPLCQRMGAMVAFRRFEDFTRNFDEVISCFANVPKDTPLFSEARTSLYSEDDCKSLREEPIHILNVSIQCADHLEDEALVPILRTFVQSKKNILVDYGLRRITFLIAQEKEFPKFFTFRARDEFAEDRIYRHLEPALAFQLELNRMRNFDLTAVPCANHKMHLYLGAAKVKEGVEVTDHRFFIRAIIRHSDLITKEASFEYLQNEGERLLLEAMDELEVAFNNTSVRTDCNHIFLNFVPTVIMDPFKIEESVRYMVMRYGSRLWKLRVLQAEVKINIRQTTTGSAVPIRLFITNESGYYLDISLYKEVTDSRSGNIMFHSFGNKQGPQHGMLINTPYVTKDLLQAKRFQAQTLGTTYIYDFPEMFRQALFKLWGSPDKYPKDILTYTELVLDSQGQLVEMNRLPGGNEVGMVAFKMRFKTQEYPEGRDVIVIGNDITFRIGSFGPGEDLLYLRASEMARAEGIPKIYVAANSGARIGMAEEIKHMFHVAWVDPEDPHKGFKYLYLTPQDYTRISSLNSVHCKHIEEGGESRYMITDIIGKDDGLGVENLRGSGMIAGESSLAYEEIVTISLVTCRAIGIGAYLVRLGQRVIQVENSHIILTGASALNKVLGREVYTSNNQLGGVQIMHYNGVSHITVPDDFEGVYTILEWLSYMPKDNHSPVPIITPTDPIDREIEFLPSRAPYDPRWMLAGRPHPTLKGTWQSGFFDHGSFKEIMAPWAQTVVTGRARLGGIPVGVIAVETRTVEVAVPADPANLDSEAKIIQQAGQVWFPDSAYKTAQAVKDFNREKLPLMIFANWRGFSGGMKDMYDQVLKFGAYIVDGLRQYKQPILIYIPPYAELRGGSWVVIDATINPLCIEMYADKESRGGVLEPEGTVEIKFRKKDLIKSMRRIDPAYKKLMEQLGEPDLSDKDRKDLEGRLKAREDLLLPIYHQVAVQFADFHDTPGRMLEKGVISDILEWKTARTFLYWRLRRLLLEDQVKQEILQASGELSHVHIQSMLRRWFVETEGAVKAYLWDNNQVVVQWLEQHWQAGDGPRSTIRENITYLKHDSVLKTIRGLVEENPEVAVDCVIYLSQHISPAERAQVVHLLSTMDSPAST

By IC50 is commonly meant the concentration at which inhibition is half-maximal. Take `CC(C)(C)OC(=O)NC[C@H]1CC[C@H](CNC(=O)c2cc(N3CCNCC3)nc3ccccc23)CC1` [Example 190, tert-Butyl {[trans-4-({[(2-piperazin-1-ylquinolin-4-yl)carbonyl]amino}methyl)-cyclohexyl]methyl}carbamate]: the IC50 stood at 1300 nM in test [1] and 13600 nM in test [2].
Turning to `CC(=O)NCC1CCN(c2cc(C(=O)NC[C@H]3CC[C@H](CNC(=O)OC(C)(C)C)CC3)c3ccccc3n2)CC1` [Example 191, tert-Butyl [(trans-4-{[({2-[4-(acetamidomethyl)piperidin-1-yl]quinolin-4-yl}carbonyl)amino]methyl}cyclohexyl)methyl]carbamate], the 50% inhibitory concentration (IC50) in test [1] amounted to 970 nM; in test [2], 2960 nM.
For `CC(=O)NCCC1CCN(c2cc(C(=O)NC[C@H]3CC[C@H](CNC(=O)OC(C)(C)C)CC3)c3ccccc3n2)CC1` [Example 192, tert-Butyl [(trans-4-{[({2-[4-(2-acetamidoethyl)piperidin-1-yl]quinolin-4-yl}carbonyl)amino]methyl}cyclohexyl)methyl]carbamate], in that order: 560 nM and 1960 nM.
`CN(C)CCC1CCN(c2cc(C(=O)NC[C@H]3CC[C@H](CNC(=O)OC(C)(C)C)CC3)c3ccccc3n2)CC1` [Example 193, tert-butyl {[trans-4-({[(2-{4-[2-(dimethylamino)ethyl]piperidin-1-yl}quinolin-4-yl)carbonyl]amino}methyl)cyclohexyl]methyl}carbamate]: the half-inhibitory concentration (IC50) in test [1] was found to be 100 nM; in test [2], 440 nM.
In the case of `CC(C)(C)OC(=O)NC[C@H]1CC[C@H](CNC(=O)c2cc(N3CCC(CCN)CC3)nc3ccccc23)CC1` [Example 194, tert-Butyl [(trans-4-{[({2-[4-(2-aminoethyl)piperidin-1-yl]quinolin-4-yl}carbonyl)amino]methyl}cyclohexyl)methyl]carbamate], the IC50 in test [1] is 50 nM; in test [2], 510 nM.
In the same order, the values of `CN(C)CCOc1ccc(-c2cc(C(=O)NC[C@H]3CC[C@H](CNC(=O)OC4CCOCC4)CC3)c3ccccc3n2)cn1` [Example 195, Tetrahydro-2H-pyran-4-yl {[trans-4-({[(2-{6-[2-(dimethylamino)ethoxy]pyridin-3-yl}quinolin-4-yl)carbonyl]amino}methyl)cyclohexyl]methyl}carbamate] are 820 nM and 4900 nM.
For `CN(C)CCOc1ccc(-c2cc(C(=O)NC[C@H]3CC[C@H](CNC(=O)O[C@H]4CCOC4)CC3)c3ccccc3n2)cn1` [Example 196, (3S)-Tetrahydrofuran-3-yl {[trans-4-({[(2-{6-[2-(dimethylamino)ethoxy]pyridin-3-yl}quinolin-4-yl)carbonyl]amino}methyl)cyclohexyl]methyl}carbamate], the 50% inhibitory concentration (IC50) in test [1] is 920 nM; in test [2], 3480 nM.
In the same order, the values of `O=C(NC[C@H]1CC[C@H](CNC(=O)c2cc(-c3ccc(NCCO)nc3)nc3ccccc23)CC1)OC1CCOCC1` [Example 197, Tetrahydro-2H-pyran-4-yl {[trans-4-({[(2-{6-[(2-hydroxyethyl)amino]pyridin-3-yl}quinolin-4-yl)carbonyl]amino}methyl)cyclohexyl]methyl}carbamate] are 1980 nM and 9640 nM.
Take `CN(C)CCNc1ccc(-c2cc(C(=O)NC[C@H]3CC[C@H](CNC(=O)OC4CCOCC4)CC3)c3ccccc3n2)cn1` [Example 198, Tetrahydro-2H-pyran-4-yl({trans-4-[({[2-(6-{[2-(dimethylamino)-ethyl]amino}pyridin-3-yl)quinolin-4-yl]carbonyl}amino)-methyl]cyclohexyl}-methyl)carbamate]: the IC50 in test [1] turned out to be 380 nM; in test [2], 1420 nM.
As for `CN(C)CCNc1ccc(-c2cc(C(=O)NC[C@H]3CC[C@H](CNC(=O)O[C@H]4CCOC4)CC3)c3ccccc3n2)cn1` [Example 199, (3S)-Tetrahydrofuran-3-yl({trans-4-[({[2-(6-{[2-(dimethylamino)ethyl]-amino}pyridin-3-yl)quinolin-4-yl]carbonyl}amino)-methyl]cyclohexyl}-methyl)carbamate], the IC50 in test [1] is 370 nM; in test [2], 1600 nM.
For `O=C(NC[C@H]1CC[C@H](CNC(=O)c2cc(-c3ccc(NCCO)nc3)nc3ccccc23)CC1)O[C@H]1CCOC1` [Example 200, (3S)-Tetrahydrofuran-3-yl{[trans-4-({[(2-{6-[(2-hydroxyethyl)amino]pyridin-3-yl}quinolin-4-yl)carbonyl]amino}methyl)cyclohexyl]methyl}-carbamate], in that order: 1200 nM and 4500 nM.
Turning to `O=C(NC[C@H]1CC[C@H](CNC(=O)c2cc(-c3ccc(N4CC[C@@H](O)C4)nc3)nc3ccccc23)CC1)O[C@H]1CCOC1` [Example 201, (3S)-Tetrahydrofuran-3-yl {[trans-4-({[(2-{6-[(3R)-3-hydroxypyrrolidin-1-yl]pyridin-3-yl}quinolin-4-yl)carbonyl]amino}methyl)cyclohexyl]methyl}-carbamate], the IC50 in test [1] turned out to be 850 nM; in test [2], 2170 nM.
Turning to `O=C(NC[C@H]1CC[C@H](CNC(=O)c2cc(-c3ccc(N4CC[C@@H](O)C4)nc3)nc3ccccc23)CC1)OC1CCOCC1` [Example 202, Tetrahydro-2H-pyran-4-yl {[trans-4-({[(2-{6-[(3R)-3-hydroxypyrrolidin-1-yl]pyridin-3-yl}quinolin-4-yl)carbonyl]amino}methyl)cyclohexyl]methyl}-carbamate], the IC50 was determined as 510 nM in test [1] and 1100 nM in test [2].
`CN(C)CCOc1ccc(-c2cc(C(=O)NC[C@H]3CC[C@H](CNC(=O)OC(C)(C)C)CC3)c3ccccc3n2)cc1` [Example 203, tert-Butyl {[trans-4-({[(2-{4-[2-(dimethylamino)ethoxy]phenyl}quinolin-4-yl)carbonyl]amino}methyl)cyclohexyl]methyl}carbamate]: the 50% inhibitory concentration (IC50) in test [1] was 150 nM; in test [2], 630 nM.
For `CN(C)CC(O)CC1CCN(c2cc(C(=O)NC[C@H]3CC[C@H](CNC(=O)OC(C)(C)C)CC3)c3ccccc3n2)CC1` (stereo partly drawn) [Example 205, tert-Butyl {[trans-4-({[(2-{4-[3-(dimethylamino)-2-hydroxypropyl]piperidin-1-yl}quinolin-4-yl)carbonyl]amino}methyl)cyclohexyl]methyl}carbamate], the values for the IC50 in test [1] and in test [2] were 140 nM and 1310 nM, respectively.
For the compound `CN(C)C(=O)COC1CCN(c2cc(C(=O)NC[C@H]3CC[C@H](CNC(=O)OC(C)(C)C)CC3)c3ccccc3n2)CC1` [Example 210, tert-Butyl {[trans-4-({[(2-{4-[2-(dimethylamino)-2-oxoethoxy]piperidin-1-yl}quinolin-4-yl)carbonyl]amino}methyl)cyclohexyl]methyl}carbamate], the half-maximal inhibitory concentration (IC50) was 2040 nM in test [1] and 13100 nM in test [2].
As for `CN(C)CCOC1CCN(c2cc(C(=O)NC[C@H]3CC[C@H](CNC(=O)OC(C)(C)C)CC3)c3ccccc3n2)CC1` [Example 211, tert-Butyl {[trans-4-({[(2-{4-[2-(dimethylamino)ethoxy]piperidin-1-yl}quinolin-4-yl)carbonyl]amino}methyl)cyclohexyl]methyl}carbamate], the IC50 in test [1] was 270 nM; in test [2], 2220 nM.
Consider `CN(C)CCC1CCN(c2cc(C(=O)NC[C@H]3CC[C@H](CNC(=O)OCC(C)(C)C)CC3)c3ccccc3n2)CC1` [Example 212, 2,2-Dimethylpropyl {[trans-4-({[(2-{4-[2-(dimethylamino)ethyl]piperidin-1-yl}quinolin-4-yl)carbonyl]amino}methyl)cyclohexyl]methyl}carbamate], for which the IC50 in test [1] worked out at 120 nM; in test [2], 1190 nM.
With `CC(C)(C)OC(=O)NC[C@H]1CC[C@H](CNC(=O)c2cc(N3CCC(CN4CCOCC4)CC3)nc3ccccc23)CC1` [Example 213, tert-Butyl[(trans-4-{[({2-[4-(morpholin-4-ylmethyl)piperidin-1-yl]quinolin-4-yl}carbonyl)amino]methyl}cyclohexyl)methyl]-carbamate], the figures for the IC50 in test [1] and in test [2] were 620 nM and 3280 nM, respectively.
On to `CN1CCN(C2CCN(c3cc(C(=O)NC[C@H]4CC[C@H](CNC(=O)OC(C)(C)C)CC4)c4ccccc4n3)CC2)CC1` [Example 214, tert-Butyl[(trans-4-{[({2-[4-(4-methylpiperazin-1-yl)piperidin-1-yl]-quinolin-4-yl}carbonyl)amino]methyl}cyclohexyl)methyl]-carbamate], for which the results for the 50% inhibitory concentration (IC50) in test [1] and in test [2] were 2240 nM and 3310 nM, respectively.
In the same order, the values of `CC(C)(C)OC(=O)NC[C@H]1CC[C@H](CNC(=O)c2cc(Oc3cccnc3)nc3ccccc23)CC1` [Example 215, tert-Butyl ({trans-4-[({[2-(pyridin-3-yloxy)quinolin-4-yl]carbonyl}amino)-methyl]cyclohexyl}methyl)carbamate] are 490 nM and above 20000 nM.
For `CN1CCC(COc2cc(C(=O)NC[C@H]3CC[C@H](CNC(=O)OC(C)(C)C)CC3)c3ccccc3n2)CC1` [Example 216, tert-Butyl [(trans-4-{[({2-[(1-methylpiperidin-4-yl)methoxy]quinolin-4-yl}carbonyl)amino]methyl}cyclohexyl)methyl]-carbamate], the half-inhibitory concentration (IC50) in test [1] was 720 nM; in test [2], 3550 nM.
Take `CN(C)CCNC(=O)C1CN(c2cc(C(=O)NC[C@H]3CC[C@H](CNC(=O)OC(C)(C)C)CC3)c3ccccc3n2)C1` [Example 217, tert-Butyl ({trans-4-[({[2-(3-{[2-(dimethylamino)ethyl]carbamoyl}azetidin-1-yl)quinolin-4-yl]carbonyl}amino)methyl]cyclohexyl}methyl)carbamate]: the IC50 was 730 nM in test [1] and 4700 nM in test [2].
As for `CC(C)(C)OC(=O)NC[C@H]1CC[C@H](CNC(=O)c2cc(-c3ccc(N)cc3)nc3ccccc23)CC1` [Example 218, tert-Butyl ({trans-4-[({[2-(4-aminophenyl)quinolin-4-yl]carbonyl}amino)-methyl]cyclohexyl}methyl)carbamate], the IC50 in test [1] was 60 nM; in test [2], 210 nM.
